“And” between values parts separate entries of the source, which are not always exact repeats. Identical values can stand only once. Like-named read-outs stand apart in the source and are kept apart here. Blank lines part the entries; values can stand above or below the compound they belong to.
How the values were obtained:
frozen buccal tissue = test: Ex vivo permeation model of octreotide with permeation enhancers (Franz diffusion cell)
Excerpt: The Franz diffusion cell apparatus consists of two chambers separated by a membrane of, for example, animal or human skin. The test product is applied to the membrane via the top chamber. The bottom chamber contains fluid from which samples are taken at regular intervals for analysis to determine the amount of active that has permeated the membrane at set time points.
Applicants performed an ex vivo screening of permeation enhancers of octreotide delivery. Ex vivo porcine tissue was used, with a tissue thickness 300 um, 3 mg of octreotide and a time of up to 6 hours.

[1] = Octreotide compatibility of permeation enhancers (solubility without precipitation)
buccal tissue = test: HIFU as physical permeation enhancer, ex vivo permeation through full thickness tissue; format: in vitro ADME; conditions: HIFU 30 seconds (180 watts, duty cycle 5%, PRF 10 Hz), two hours
Excerpt: In one example, the inventors used High Intensity Focused Ultrasound (HIFU) as physical permeation enhancer. HIFU can have mechanical, cavitational or thermal effects on the tissue depending on the Ultrasound parameters such as intensity, duty cycle, pulse repetition frequency and the exposure time. In this experiment, the buccal tissue was subjected to HIFU for 30 seconds (power of 180 watts, duty cycle 5%, PRF of 10 Hz) octreotide permeation through the tissue was monitored for two hours in the ex vivo permeation model described earlier (except using full thickness tissue which includes connective tissue of the sub-mucosa).

[2] = Octreotide degradation on buccal tissue with microneedle application; format: in vitro ADME; conditions: 4 hours at 37 degrees C.
Method: As shown in the Table below, the buccal tissue was subjected to microneedle application (10 times) and incubated with octreotide solution (2 ml, 1 mg/ml) for 4 hours at 37 degrees C.

[3] = POC study in mini pigs, octreotide solution on buccal/sublingual mucosa after microneedles; format: in vivo; conditions: pig, blood, iv, 100 ug, 100 μg I.V.
[4] = as above; format: in vivo; conditions: pig, blood; for AUC / Cmax / bioavailability: 12 mg
Excerpt: Solutions were placed after scraping off mucin using a spatula and then treating the area with microneedles (750 um for buccal and 500 um for sublingual). Methocel (40% in water was used as a glue to attach the holder keeping the solution on to the tissue. The test material was colored so that any loss of drug during the experimental set up could be easily monitored.

[5] = 10% w/w, Octreotide soluble after vigorous stirring
[6] = octreotide flux, enhancer 10 Wt %, frozen buccal tissue 300 um
[7] = octreotide permeation, 10% w/w, Octreotide soluble after vigorous stirring
[8] = 12 mg solution with 5 wt % DDTMAB applied to disrupted buccal mucosa
[9] = 12 mg with 5 wt % DDTMAB applied to disrupted sublingual mucosa

Average flux (frozen buccal tissue): 0.69 ug/cm2*min
flux (frozen buccal tissue): 3-3.5 μg/cm^2*min
Compound: CCCCCCCCCCCCCCCCOC(=O)C[N+](C)(C)C [Glycine Betaine Ester C16]

Permeation Ranking 0-1-2-3 None-Low-Med-High (frozen buccal tissue; pig): 1
Average flux (frozen buccal tissue; pig, 10 Wt %): 0.10 ug/cm2*min
Compound: O=C(O)CN(CCN(CC(=O)O)CC(=O)O)CC(=O)O [EDTA]

Compound: CCCCCCCCCCCC[N+](C)(C)C.[Br-] [Dodecyltrimethylammonium bromide]
Octreotide Compatibility [1]: Yes
compatibility with octreotide in terms of solubility without causing precipitation [1]: improved compatibility
permeation activity (frozen buccal tissue; aliphatic trimethyl-ammonium bromide surfactants at 1 wt % (FIG. 5)): most active

Compound: C[C@H](CCC(=O)NCC(=O)[O-])[C@H]1CC[C@H]2[C@@H]3CC[C@@H]4C[C@H](O)CC[C@]4(C)[C@H]3C[C@H](O)[C@]12C.[Na+] [GDC, Sodium glycodeoxycholate]
Octreotide Compatibility [1, 5]: Yes
Average flux (frozen buccal tissue; octreotide flux, enhancer 0.1 Wt %, frozen buccal tissue 300 um): 0.14 ug/cm2*min
Average flux (frozen buccal tissue; [6]): 0.85 ug/cm2*min
Permeation Ranking 0-1-2-3 None-Low-Med-High (frozen buccal tissue; [7]): 2

Average flux (frozen buccal tissue): 0.15 ug/cm2*min
Compound: Hydroxypropylcyclodextrin

Permeation Ranking 0-1-2-3 None-Low-Med-High (frozen buccal tissue): 3
Compound: Benzalkonium chloride [Benzalkonium chloride (BAC)]

Average flux (frozen buccal tissue): 0.51 ug/cm2*min
flux (frozen buccal tissue): 3-3.5 μg/cm^2*min
Compound: CCCCCCCC/C=C\CCCCCCCCOC(=O)C[N+](C)(C)C [Glycine Betaine Ester C18 (Oleyl)]

Average flux (frozen buccal tissue): 0.14 ug/cm2*min
Compound: CCCCCCCCCCCCCCCCOP(=O)([O-])OCC[N+](C)(C)C [Miltefosine (Hexadecyl Phosphatidyl Choline), reference compound]

Average flux (frozen buccal tissue; pig, 10 Wt %): 0.58 ug/cm2*min
Compound: Cl.NCCCNCCCCNCCCN [Spermine HCl]

permeation activity (frozen buccal tissue): not active
Compound: CCCCCC[N+](C)(C)C.[Br-] [Hexyltrimethylammonium bromide]

Compound: CCCCCCCCCCCCCCCC[N+](C)(C)C.[Br-] [Hexadecyltrimethylammonium bromide]
compatibility with octreotide in terms of solubility without causing precipitation [1]: improved compatibility
permeation activity (frozen buccal tissue): most active
Permeation Ranking 0-1-2-3 None-Low-Med-High (frozen buccal tissue; pig): 3
Average flux (frozen buccal tissue; pig, 1 Wt %): 1.23 ug/cm2*min

Average flux (frozen buccal tissue; pig, 5 Wt %): 0.08 ug/cm2*min
Compound: CN1CCCC1=O [1-Methyl 2-Pyrrolidone]

Average flux (frozen buccal tissue): 0.53 ug/cm2*min
Permeation Ranking 0-1-2-3 None-Low-Med-High (frozen buccal tissue): 1
Compound: Dimethyl-cyclodextrin

Compound: Sodium Deoxycholate [DOC]
Octreotide Compatibility [1, 5]: Yes
Average flux (frozen buccal tissue; [6]): 0.49 ug/cm2*min and 0.41 ug/cm2*min
Permeation Ranking 0-1-2-3 None-Low-Med-High (frozen buccal tissue; [7]): 1

biodegradability, quantified by analysis of glycine betaine (biological media (plasma, esterase solution, simulated intestinal fluid, tissue homogenate), 37 degrees C.): highly biodegradable
degradability in acidic environment (simulated gastric fluid (pepsin/low pH)): not degradable
Average flux (frozen buccal tissue): 3.14 ug/cm2*min
flux (frozen buccal tissue): 3-3.5 μg/cm^2*min
Compound: CCCCCCCCCCCCOC(=O)C[N+](C)(C)C [Glycine Betaine Ester C12]

Compound: CO[C@H]1CO[C@H]2[C@@H]1OC[C@H]2OC [Dimethyl isosorbide]
Average flux (frozen buccal tissue; octreotide flux, enhancer 5 Wt %, frozen buccal tissue 300 um): 0.07 ug/cm2*min

permeation activity (frozen buccal tissue): not active
Compound: CCCCCCCC[N+](C)(C)C.[Br-] [Octyltrimethylammonium bromide]

Average flux (frozen buccal tissue): 0.10 ug/cm2*min
Compound: CCCCCCCCN1CCCC1=O [Octyl pyrroldone]

Compound: CCCCCCCCCCCCCCCC[N+](C)(C)C.[Br-] [drawing 5]
Avg Flux (frozen buccal tissue; pig, 1 wt %): 1.31 (1 wt %) μg/cm^2*min

Permeation Ranking 0-1-2-3 None-Low-Med-High (frozen buccal tissue): 0
Compound: O=C(O)CN(CCOCCOCCN(CC(=O)O)CC(=O)O)CC(=O)O [EGTA]

Compound: C[C@@H](O)[C@@H]1NC(=O)[C@H](CCCCN)NC(=O)[C@@H](Cc2c[nH]c3ccccc23)NC(=O)[C@H](Cc2ccccc2)NC(=O)[C@@H](NC(=O)[C@H](N)Cc2ccccc2)CSSC[C@@H](C(=O)N[C@H](CO)[C@@H](C)O)NC1=O [Octreotide]
octreotide permeated through the tissue (buccal tissue): ~60 µg
remaining at 4 h, 1 mg/ml ([2]; + Tissue with microneedle (10 times)): 98%
remaining at 4 h, 1 mg/ml ([2]; buccal tissue incubated with octreotide solution, + Tissue): 86%
remaining at 4 h, 1 mg/ml ([2]; control without tissue, control, octreotide solution 2 ml, 1 mg/ml): 100%
flux (frozen buccal tissue; octreotide concentration of 5 mg/ml (FIG. 4)): approximately 0.500 ug/cm2*min
flux (frozen buccal tissue; octreotide concentration of 15-20 mg/ml (FIG. 4)): 2.0-2.5 ug/cm2*min

Permeation Ranking 0-1-2-3 None-Low-Med-High (frozen buccal tissue; pig): 0
Average flux (frozen buccal tissue; pig, 5 Wt %): 0.01 ug/cm2*min
Compound: CCCCCCCC/C=C\CCCCCCCC(=O)O [Oleic acid]

Compound: O=CC=Cc1ccccc1 [Cinnamaldehyde]
Average flux (frozen buccal tissue; pig, 1 Wt %): 0.00 ug/cm2*min
Average flux (frozen buccal tissue; pig, 3 Wt %): 0.00 ug/cm2*min

Permeation Ranking 0-1-2-3 None-Low-Med-High (frozen buccal tissue): 1
Compound: CCCCCCCCCCCCCCO[C@@H]1O[C@H](CO)[C@@H](O[C@H]2O[C@H](CO)[C@@H](O)[C@H](O)[C@H]2O)[C@H](O)[C@H]1O [TDM]

Compound: C[C@@H](O)[C@@H]1NC(=O)[C@H](CCCCN)NC(=O)[C@@H](Cc2c[nH]c3ccccc23)NC(=O)[C@H](Cc2ccccc2)NC(=O)[C@@H](NC(=O)[C@H](N)Cc2ccccc2)CSSC[C@@H](C(=O)N[C@H](CO)[C@@H](C)O)NC1=O [octreotide acetate]
AUC [3]: 14.8 ng·h/mL
Cmax [3]: 31 ng/mL
Tmax [3]: 4 min
Tmax [4, 8]: 3 h
AUC [4, 8]: 19.8 ng·h/mL
Cmax [4, 8]: 4.2 ng/mL
bioavailability [4, 8]: 1.11%
AUC [4, 9]: 106 ng·h/mL
Cmax [4, 9]: 25.6 ng/mL
bioavailability [4, 9]: 5.97%
